The source of these data is ChEMBL document CHEMBL1147629, “Beyond U0126. Dianion chemistry leading to the rapid synthesis of a series of potent MEK inhibitors” (Bioorg Med Chem Lett, 2004).

The target of test [1] is T1, Dual specificity mitogen-activated protein kinase kinase 1 (Homo sapiens, UniProt Q02750). In words: Inhibitory potency against mitogen activated protein kinase kinase 1.
Target sequence in this assay (Q02750 whole entry): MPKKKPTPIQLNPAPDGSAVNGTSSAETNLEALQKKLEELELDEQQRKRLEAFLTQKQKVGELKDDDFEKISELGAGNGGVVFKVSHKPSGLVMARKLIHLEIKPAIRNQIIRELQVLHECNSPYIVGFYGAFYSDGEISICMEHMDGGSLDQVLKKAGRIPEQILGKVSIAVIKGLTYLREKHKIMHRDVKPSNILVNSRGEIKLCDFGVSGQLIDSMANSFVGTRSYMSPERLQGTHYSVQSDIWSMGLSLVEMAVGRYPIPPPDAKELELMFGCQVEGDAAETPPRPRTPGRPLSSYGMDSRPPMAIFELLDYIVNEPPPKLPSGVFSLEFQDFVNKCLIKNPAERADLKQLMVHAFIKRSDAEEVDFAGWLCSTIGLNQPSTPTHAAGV
Test [2] relates to COS-7. In words: Inhibitory concentration against AP-1 transcription in COS-7 cells. To be noted: Chlorocebus aethiops.
The subject of test [3] is COS-7.
Test [4] concerns the target T1, Dual specificity mitogen-activated protein kinase kinase 1. The test is described as follows: Inhibitory potency against mitogen activated protein kinase kinase 1 at 10 uM.
Target sequence in this assay (Q02750 whole entry, looked up): as the sequence (Q02750 whole entry) above
The target in test [5] is T2, Dual specificity mitogen-activated protein kinase kinase 3 (Homo sapiens, UniProt P46734).
T2 sequence (P46734 whole entry): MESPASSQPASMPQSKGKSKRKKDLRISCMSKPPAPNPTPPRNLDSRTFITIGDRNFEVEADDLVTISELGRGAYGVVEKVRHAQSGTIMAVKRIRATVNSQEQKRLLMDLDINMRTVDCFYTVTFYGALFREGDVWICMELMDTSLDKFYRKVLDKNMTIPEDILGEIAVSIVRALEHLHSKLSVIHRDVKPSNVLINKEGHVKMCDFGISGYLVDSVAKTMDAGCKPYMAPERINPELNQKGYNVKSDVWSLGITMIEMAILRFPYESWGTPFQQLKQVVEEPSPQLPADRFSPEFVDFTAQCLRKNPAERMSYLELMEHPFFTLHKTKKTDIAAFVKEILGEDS
The test is described as follows: Inhibitory potency against MAP kinase kinase 3 (MKK3). It is filed as functional.

Test [6] in a line: Inhibitory potency against Mitogen activated protein kinase kinase 4. It is filed as functional.
Test [7] concerns Mus musculus. In words: In vivo effective dose against TPA-induced ear edema in mouse upon intraperitoneal administration. The class given is functional. The conditions noted are these: ip.

For the compound `CC(C)(O)c1cccc(/C(C#N)=C(\N)Sc2ccccc2N)c1`, the values for the IC50 in test [1] and in test [2] were 0.34 µM and 40 µM, respectively.

In the case of `N#C/C(=C(/N)Sc1ccccc1N)c1cccc(C(O)(c2ccccc2)c2ccccc2)c1`, the IC50 in test [1] was 2.22 µM; in test [3] it was “Not Active”.

For the compound `N#C/C(=C(/N)Sc1ccccc1)c1cccc(C(O)c2ccc(C#N)cc2)c1` (stereo not drawn), the results for the IC50 in test [1] and in test [2] were 0.053 µM and 1.2 µM, respectively.

On to `N#C/C(=C(/N)Sc1ccccc1N)c1cccc(C(O)c2ccco2)c1` (stereo not drawn), for which the IC50 in test [2] was determined as 12.2 µM.

In turn, `N#C/C(=C(/N)Sc1ccc(N)cc1)c1cccc(C(O)c2ccc(C#N)cc2)c1` (stereo not drawn) yielded an IC50 in test [1] of 0.053 µM.

Regarding `N#C/C(=C(/N)Sc1ccccc1N)c1cccc(Cc2ccccc2)c1`, the IC50 in test [2] was 3.2 µM.

In test [2], `N#C/C(=C(/N)Sc1ccccc1N)c1cccc(C(O)c2cccnc2)c1` (stereo not drawn) returned a half-inhibitory concentration (IC50) of 2.72 µM.

In turn, `CN(C(=O)c1cccc(/C(C#N)=C(\N)Sc2ccc(N)cc2)c1)c1ccccc1` returned an inhibition in test [4] of 45%.

With `N#C/C(=C(/N)Sc1ccccc1N)c1cccc(C(O)c2ccc([N+](=O)[O-])cc2[N+](=O)[O-])c1` (stereo not drawn), the figures for the IC50 in test [1] and in test [2] were 0.008 µM and 0.3 µM, respectively.

With `N#C/C(=C(/N)Sc1ccccc1N)c1cccc(C(O)C2CCCCC2)c1` (stereo not drawn), the figures for the IC50 in test [1] and in test [2] were 0.056 µM and 4.51 µM, respectively.

As to `N#C/C(=C(/N)Sc1ccccc1N)c1ccc(C(=O)c2ccccc2)cc1`, the IC50 in test [2] came to 3.13 µM.

Compound `N#C/C(=C(/N)Sc1ccccc1N)c1cccc(C(O)c2c(F)c(F)c(F)c(F)c2F)c1` (stereo not drawn) gave an IC50 in test [1] of 0.044 µM. This lies in the double-digit nanomolar range.

Consider `N#C/C(=C(/N)Sc1ccccc1N)c1cccc(C(O)c2ccc(C(F)(F)F)cc2)c1` (stereo not drawn), for which the IC50 in test [1] turned out to be 0.057 µM; in test [2] it was 3.97 µM.

As to `N#C/C(=C(/N)Sc1ccccc1N)c1cccc(Oc2ccccc2)c1`, in test [2], the IC50 was 3.03 µM. In other words, the single-digit micromolar range.

With `N#CC(=C(N)Sc1ccccc1N)c1ccccc1`, the IC50 in test [1] was found to be 0.14 µM. This counts as sub-micromolar.

For the compound `N#C/C(=C(/N)Sc1ccccc1N)c1cccc(C(O)c2cccc(C(F)(F)F)c2)c1` (stereo not drawn), the IC50 in test [1] was found to be 0.053 µM; in test [2], 5.7 µM.

For `N#C/C(=C(/N)Sc1ccccc1N)c1cccc(C(O)c2cccc([N+](=O)[O-])c2)c1` (stereo not drawn), the IC50 in test [1] came out at 0.017 µM; in test [2], 1.6 µM.

Turning to `Cc1ccc(C(O)c2cccc(/C(C#N)=C(\N)Sc3ccc(N)cc3)c2)cc1` (stereo not drawn), in test [3], the IC50 entry is “Not Active”.

In test [2], `N#C/C(=C(/N)Sc1ccccc1N)c1cccc(C(O)Cc2ccccc2)c1` (stereo not drawn) showed an IC50 of 19.9 µM.

Take `N#CC(=C(/N)Sc1ccccc1N)/C(C#N)=C(\N)Sc1ccccc1N`: in test [2], half-maximal inhibition (IC50) was put at 1 µM.

Compound `Cc1cccc(C(O)c2cccc(/C(C#N)=C(\N)Sc3ccccc3N)c2)c1` (stereo not drawn) had an IC50 in test [2] of 2.4 µM.

With `N#C/C(=C(/N)Sc1ccccc1N)c1cccc(C(O)c2ccc3c(c2)OCCO3)c1` (stereo not drawn), the IC50 in test [1] is 0.025 µM; in test [2], 2.1 µM.

Compound `N#C/C(=C(/N)Sc1ccccc1N)c1cccc(C(O)c2ccccc2)c1` (stereo not drawn) showed an IC50 in test [2] of 2.07 µM.

Turning to `N#C/C(=C(/N)Sc1ccccc1N)c1cccc(C(O)c2cccc(C#N)c2)c1` (stereo not drawn), the IC50 in test [1] is 0.013 µM; in test [2], 1.08 µM.

In the case of `COC(=O)c1ccc(C(O)c2cccc(/C(C#N)=C(\N)Sc3ccccc3N)c2)cc1` (stereo not drawn), the IC50 came out at 0.014 µM in test [1] and 0.29 µM in test [2].

`N#C/C(=C(/N)Sc1ccccc1O)c1cccc(C(O)c2ccc(C#N)cc2)c1` (stereo not drawn): half-maximal inhibition in test [2] (IC50) was put at 0.64 µM.

As to `Cc1ccccc1C(O)c1cccc(/C(C#N)=C(\N)Sc2ccc(N)cc2)c1` (stereo not drawn), the IC50 in test [2] worked out at 3.67 µM. This IC50 is about 5.7-fold higher than that of the compound before.

Take `CC(O)c1cccc(/C(C#N)=C(\N)Sc2ccccc2N)c1` (stereo not drawn): the IC50 in test [1] came to 0.183 µM; in test [2], 66.7 µM.

In test [2], `N#C/C(=C(/N)Sc1ccccc1N)c1cccc(C(=O)c2ccccc2)c1` had an IC50 of 6.17 µM.

As to `N#C/C(=C(/N)Sc1ccccc1N)c1cccc(C(O)c2ccc([N+](=O)[O-])cc2)c1` (stereo not drawn), the IC50 came out at 0.008 µM in test [1] and 0.3 µM in test [2].

Turning to `C[n+]1ccc(C(O)c2cccc(/C(C#N)=C(\N)Sc3ccccc3N)c2)cc1` (stereo not drawn), the IC50 in test [1] is 0.33 µM; in test [2], 50 µM.

As to `N#C/C(=C(/N)Sc1ccccc1N)c1cccc(C(O)c2ccc(C#N)cc2)c1` (stereo not drawn), the IC50 in test [1] was 0.007 µM; in test [2], 0.32 µM.

As to `COc1ccccc1S/C(N)=C(\C#N)c1cccc(C(O)c2ccc(C#N)cc2)c1` (stereo not drawn), in test [3], the IC50 entry is on record as “Not Active”.

Take `CC(O)(c1ccccc1)c1cccc(/C(C#N)=C(\N)Sc2ccccc2N)c1` (stereo not drawn): the IC50 entry in test [3] is recorded as “Not Active”.

For the compound `CN(C(=O)c1cccc(/C(C#N)=C(\N)Sc2ccccc2N)c1)c1ccccc1`, half-maximal inhibition in test [1] (IC50) required 4.01 µM.

Turning to `N#C/C(=C(/N)Sc1ccccc1N)c1cccc(C(O)c2ccccn2)c1` (stereo not drawn), half-maximal inhibition in test [2] (IC50) was put at 11.8 µM. That is a double-digit micromolar value.

For `Cc1ccc(C(O)c2cccc(/C(C#N)=C(\N)Sc3ccccc3N)c2)cc1` (stereo not drawn), in test [2], half-maximal inhibition (IC50) was put at 3 µM.

`N#C/C(=C(/N)Sc1ccccc1N)c1cccc(C(O)c2ccc3ccccc3c2)c1` (stereo not drawn): the IC50 in test [1] turned out to be 0.076 µM; in test [2], 3.25 µM.

With `N#C/C(=C(/N)Sc1ccccc1N)c1cccc(C(O)c2ccoc2)c1` (stereo not drawn), in test [2], the IC50 came out at 7.02 µM.

Turning to `Cc1cccc(C(O)c2cccc(/C(C#N)=C(\N)Sc3ccc(N)cc3)c2)c1` (stereo not drawn), in test [3], the IC50 entry is recorded as “Not Active”.

Turning to `N#C/C(=C(/N)Sc1ccccc1N)c1cccc(C(O)c2ccc(-c3nnn(C(c4ccccc4)(c4ccccc4)c4ccccc4)n3)cc2)c1` (stereo not drawn), the IC50 in test [1] was 0.255 µM; in test [2], 6.88 µM.

As for `N#C/C(=C(/N)Sc1ccccc1N)c1cccc(C(O)c2ccsc2)c1` (stereo not drawn), the IC50 is 0.017 µM in test [1] and 2.4 µM in test [2].

Consider `N#C/C(=C(/N)Sc1ccccc1N)c1cccc(C(O)c2cccc3ccccc23)c1` (stereo not drawn), for which the figures for the IC50 in test [1] and in test [2] were 0.047 µM and 2.59 µM, respectively.

On to `N#C/C(=C(/N)Sc1ccccc1N)c1cccc(C(O)c2cccs2)c1` (stereo not drawn), for which the IC50 is 0.017 µM in test [1] and 2.22 µM in test [2].

With `N#C/C(=C(/N)Sc1ccc(N)cc1)c1cccc(C(O)c2ccccc2)c1` (stereo not drawn), the IC50 in test [2] came out at 10.7 µM. That is a double-digit micromolar value.

Regarding `N#C/C(=C(/N)Sc1ccccc1O)c1cccc(C(O)c2cccc([N+](=O)[O-])c2)c1` (stereo not drawn), the values for the IC50 in test [1] and in test [2] were 0.025 µM and 3.22 µM, respectively.

In turn, `N#C/C(=C(/N)Sc1ccc(N)cc1)c1cccc(Cc2ccccc2)c1` returned an IC50 in test [2] of 38.8 µM. This lies in the double-digit micromolar range.

Turning to `N#C/C(=C(/N)Sc1ccccc1N)c1cccc(C(O)c2ccncc2)c1` (stereo not drawn), the half-inhibitory concentration (IC50) in test [5] is more than 1 µM; in test [6], more than 1 µM; in test [2], 1.4 µM. In test [7], it took a dose of 5 mg/kg to reach the 50% effect level (ED50).

`Cc1ccccc1C(O)c1cccc(/C(C#N)=C(\N)Sc2ccccc2N)c1` (stereo not drawn) registered an IC50 in test [2] of 2.69 µM.
